Source: patent publication US11975003B2, “Methods and compositions for treatment of Zika virus infection” (priority 2016, dated 2024)
Like-named read-outs stand apart in the source and are kept apart here.

How the values were obtained:
[1] = test system: Zika virus (Malaysia, strain P 6-740); experiment: Murine Zika virus model, treatment begun 1, 3, 5 or 7 dpi (Example 5); format: in vivo, AG129 mice; settings: for number of mice showing no disease signs: n=8; for weight change in grams between days 7 and 13 post-infection vs placebo: FIG. 10B
Procedure: Compound A was administered IM at 300 mg/kg/day in a volume of 0.05 ml saline.
Disease signs were assessed daily for each mouse and the date the disease sign was first noted was recorded. The graph represents the number of mice observed with each disease sign. […] As the time of administration of Compound A post-infection increased, the number of mice displaying no disease signs decreased (2 mice at 3 dpi, 1 mouse at 5 dpi and 0 mice at 7 dpi) and the total number of disease signs increased (13 disease signs at 3 dpi, 16 disease signs at 5 dpi and 23 disease signs at 7 dpi).

[2] = Phase 1 study of intramuscular injection in healthy human subjects (Example 8); format: in vivo; settings: human, in vivo
Procedure: A phase 1 double-blind, placebo-controlled, dose-ranging study was conducted to evaluate the safety, tolerability, and pharmacokinetics of Compound A administered by intramuscular injection (IM) in healthy human subjects. The study was conducted in two parts. In part 1, subjects received a single dose of Compound A at doses from 0.3 mg/kg to 10 mg/kg via IM administration. Additionally, the effect of lidocaine administration (co-administered with Compound A at a dose of 4 mg/kg) on alleviation of pain associated with injection was also evaluated. In part 2, subjects received Compound A for 7 days (q.d.) at doses of 2.5 mg/kg/day, 5 mg/kg/day or 10 mg/kg/day via IM administration. 50 subjects received single doses of Compound A in part 1 (12 subjects received placebo) and 23 subjects received multiple doses of Compound A in part 2 (6 subjects received placebo). All planned cohorts were completed.
Eligible subjects were adults of either sex ages 18 to 50. […]
The plasma concentration time profile of Compound A was determined for each subject in part 2 (results expressed as ng/ml Compound A). Blood samples were taken on Day 1 prior to administration of the first dose and at 1, 2, 3, 4, 6, 8, 10, 12, 16 and 24 hours after administration of the first dose of Compound A and on Day 7 prior to administration of the last dose of Compound A and at 1, 2, 3, 4, 6, 8, 10, 12, 16, 24, 36, 48, 72 and 96 hours after administration of the last dose of Compound A. Plasma samples were obtained from the blood samples and the concentration of Compound A determined.

[3] = test system: Zika virus KF993678 (Thai isolate); experiment: Non-human primate Zika virus model, heterologous challenge day 70 (Example 6); format: in vivo, Indian rhesus macaques; settings: Groups 1 and 2, no additional dosing
[4] = test system: Zika virus Puerto Rico PRVABC59; experiment: Virus yield reduction (VYR) assay; format: cell-based; settings: Puerto Rico PRVABC59
Procedure: (§1) The compounds were administered at a range of concentrations up to 100 μg/ml. Compounds were prepared in MEM just prior to testing. Inhibition of virus replication was determined by microscopic examination of the infected cells for cytopathic effect, increase of neutral red (NR) dye uptake (colorimetric determination), and virus yield reduction. Uninfected cells treated with a compound were assayed as above for cytotoxicity control. The EC50, EC90 and SI (selectivity index) values were determined in Vero76, Huh7 and RD cells as analyzed by the neutral red uptake dye assay and virus yield reduction assays. The results are presented from 3 or more independent experiments (standard deviations not shown. Three Zika virus strains were used in this in vitro study, Malaysia strain P 6-740, Uganda strain MR-766 and Puerto Rico strain PRVABC-59. Cells were maintained under standard conditions.

[5] = test system: Zika virus Malaysia P 6-740; experiment: Virus yield reduction (VYR) assay; format: cell-based
Procedure: as §1

Zika virus Uganda MR 766 = experiment: Virus yield reduction (VYR) assay; format: cell-based
Procedure: as §1

Compound: Cl.Nc1ncnc2c([C@@H]3N[C@H](CO)[C@@H](O)[C@H]3O)c[nH]c12 [Compound A]
- time of first administration at which treatment is effective ([1]; 300 mg/kg/day IM): up to 5 days post-infection
- survival vs placebo ([1]; 300 mg/kg/day IM bid x 8 days, begun 1 dpi, p≤0.001): statistically significant improvements in survival
- viral RNA levels in serum on day 5 post-infection ([1]; 300 mg/kg/day IM, begun 1, 3, 5 or 7 dpi, FIG. 10C): not significantly decreased
- total number of disease signs ([1]; 300 mg/kg/day IM, begun 1 dpi): 6 disease signs
- number of mice showing no disease signs ([1]; 300 mg/kg/day IM, begun 1 dpi): 6 mice
- weight change in grams between days 7 and 13 post-infection vs placebo ([1]; 300 mg/kg/day IM, begun 1 dpi, p≤0.001): statistically significant decrease in weight loss
- percent weight change ([1]; 300 mg/kg/day IM, begun 1 dpi, through 27 dpi, FIG. 10A): essentially no weight change
- mortality curve and survival vs placebo ([1]; 300 mg/kg/day IM, begun 3 dpi): delayed the mortality curve of infected mice and increased survival
- total number of disease signs ([1]; 300 mg/kg/day IM, begun 3 dpi): 13 disease signs
- percentage weight loss ([1]; 300 mg/kg/day IM, begun 3 dpi, FIG. 10A): statistically significant decreases in percentage weight loss
- number of mice showing no disease signs ([1]; 300 mg/kg/day IM, begun 3 dpi): 2 mice
- weight change in grams between days 7 and 13 post-infection vs placebo ([1]; 300 mg/kg/day IM, begun 3 dpi, p≤0.001): statistically significant decrease in weight loss
- mortality curve and survival vs placebo ([1]; 300 mg/kg/day IM, begun 5 dpi): delayed the mortality curve of infected mice and increased survival
- total number of disease signs ([1]; 300 mg/kg/day IM, begun 5 dpi): 16 disease signs
- percentage weight loss ([1]; 300 mg/kg/day IM, begun 5 dpi, FIG. 10A): statistically significant decreases in percentage weight loss
- number of mice showing no disease signs ([1]; 300 mg/kg/day IM, begun 5 dpi): 1 mouse
- total number of disease signs ([1]; 300 mg/kg/day IM, begun 7 dpi): 23 disease signs
- number of mice showing no disease signs ([1]; 300 mg/kg/day IM, begun 7 dpi): 0 mice
- plasma viremia through day 28 post-infection (Zika virus PRVABC-59; Group 1: 200 mg/kg split dose day 0 (+90 min), 25 mg/kg b.i.d. days 1-9, IM, n=5): did not develop detectable viremia
- Zika virus RNA in CSF, saliva and urine (Zika virus PRVABC-59; Group 1, FIG. 13A): only sporadically detectable Zika virus RNA
- magnitude of viremia in viremic animals (Zika virus PRVABC-59; Group 2: 200 mg/kg split dose day 0 only, IM): significantly reduced as compared to control
- animals with detectable plasma viremia (Zika virus PRVABC-59; Group 2: 200 mg/kg split dose day 0 only, IM, n=5): only two animals from this group showing viremia
- Zika virus RNA in CSF, saliva and urine (Zika virus PRVABC-59; Group 2, FIG. 13B): only sporadically detectable Zika virus RNA
- tolerability (Zika virus PRVABC-59; IM, Groups 1 and 2): well-tolerated
- clinically significant laboratory abnormalities [2]: no clinically significant laboratory abnormalities occurred
- exposure vs dose [2]: dose-proportional and linear with increasing dose
- plasma PK profile on co-administration of lidocaine ([2]; 4 mg/kg): without altering the plasma PK profile
- viral RNA in serum after heterologous challenge ([3]; FIG. 14A): minimal viral RNA
- viral RNA in CSF after heterologous challenge ([3]; FIG. 14B): minimal viral RNA
- VYR assay EC90 ([4]; Huh-7 cells): 6.7 ± 1.2 µg/mL
- VYR assay EC90 ([4]; RD cells): 10.0 ± 2.2 µg/mL
- VYR assay EC90 ([4]; Vero76 cells, virus harvested 5 dpi, 1 log10 CCID50 reduction): 18.2 ± 2.7 µg/mL
- VYR assay EC90 ([5]; Huh-7 cells): 4.9 ± 0.9 µg/mL
- VYR assay EC90 ([5]; Vero76 cells): 13.8 ± 3.7 µg/mL
- VYR assay EC90 (Zika virus Uganda MR 766; Huh-7 cells): 6.4 µg/mL
- VYR assay EC90 (Zika virus Uganda MR 766; RD cells): 5.4 ± 1.1 µg/mL
- VYR assay EC90 (Zika virus Uganda MR 766; Vero76 cells): 8.7 µg/mL
